Converted amounts (≈) assume the structure as drawn.
Assay: Tazarotene solubility in water, glycerin, and 70% glycerin solution
Type: physicochemical

Compound: CCOC(=O)c1ccc(C#Cc2ccc3c(c2)C(C)(C)CCS3)nc1 [Tazarotene]
- solubility (70% glycerin solution, aqueous with cosolvent or surfactant or cyclodextrin, 70% Glycerin, 5 °C): 0.27 µg/mL (≈ 0.768 µM)
- solubility (70% glycerin solution, aqueous with cosolvent or surfactant or cyclodextrin, 70% Glycerin, 25 °C): 0.68 µg/mL (≈ 1.93 µM)
- solubility (70% glycerin solution, aqueous with cosolvent or surfactant or cyclodextrin, 70% Glycerin, 40 °C): 4.43 µg/mL (≈ 12.6 µM)
- solubility (glycerin, 5 °C, organic solvent or mixture): 72.6 µg/mL (≈ 207 µM)
- solubility (glycerin, 25 °C, organic solvent or mixture): 34.7 µg/mL (≈ 98.7 µM)
- solubility (glycerin, 40 °C, organic solvent or mixture): 527 µg/mL (≈ 1500 µM)
- solubility of tazarotene in glycerin (in words): low solubility
- solubility (water, 5 °C): 0.07 µg/mL (≈ 0.199 µM)
- solubility (water, 25 °C): 0.04 µg/mL (≈ 0.114 µM)
- solubility (water, 40 °C): 1.7 µg/mL (≈ 4.84 µM)

Reference: patent US20150209342A1, “TOPICAL RETINOID FORMULATIONS, PROCESSES FOR MAKING AND METHODS OF USE” (Allergan, Inc., priority 2014, published 2015)
